Assays:
3T3-L1 cells = assay: Lipogenesis inhibition in 3T3-L1 cells (Sudan III dyeing); format: cell-based, mouse; conditions: 50 µM
Experimental: The mouse fibroblast cell line, 3T3-L1 cells are immobilized in a 6-well culture plate filled with Dulbecco's modified eagle's medium (DMEM) (GIBCO BRL, Life Technologies, Inc.) containing 10% fetal bovine serum (FBS) at an amount of 1×10^5 cells/well. After 2 days, the used medium is replaced with a new DMEM (containing 10% FBS) medium to culture the cells for 2 days. […] After 5 days, the used DMEM medium is replaced with a normal medium (DMEM containing 10% FBS). The cells are cultured and observed until they are morphologically changed into fat cells. In order to evaluate the ginsenoside F2 in regards to the inhibitory effect on the fat accumulation in the fat cells, the completely differentiated 3T3-L1 fat cells are dyed with Sudan III ([…], Sigma-Aldrich). The fat cells are immobilized with 4% para-formaldehyde (pH 7.2) at the room temperature in a phosphate buffer solution. The fat cells are washed with phosphate-buffered saline (PBS) and then dyed with Sudan III. The picture of the fat cells is taken for visual evaluation. The control uses a medium using neither a test substance nor a comparative substance. The comparative control group is treated with 50 μM caffeine. The fat accumulation inhibitory ability is evaluated based on the degree of dying. The degree of dying is graded +++, ++, +, and - in the decreasing order.

[1] = system: prostaglandin generation in macrophagocytes collected from the abdominal cavity of a mouse; assay: Prostaglandin generation inhibition in LPS-treated macrophagocytes (ELISA); format: cell-based; conditions: 100 μl of ginsenoside F2
Experimental: The inflammatory effect is evaluated in terms of the inhibitory effect on prostaglandin generation. Ginsenoside F2 is used to measure the effect on macrophagocytes. Firstly, macrophagocytes collected from the abdominal cavity of a mouse are treated with aspirin to have the final concentration of 500 µM, causing irreversible inhibition on the activity of cyclooxygenase (COX) remaining in the macrophagocytes. Then, 100 μl of the suspension is put in each well of a 96-well culture plate and cultured in an incubator under the conditions of 5% CO2 and 37° C. for 2 hours to immobilize the macrophagocytes on the surface of the container. Subsequently, the immobilized macrophagocytes are washed with PBS three times and used in the inflammatory improvement test. […] Then, the macrophagocytes are treated with 100 μl of ginsenoside F2, and the isolated prostaglandin is quantitatively analyzed by way of ELISA (Enzyme-Linked ImmunoSorbent Assey).
In this regard, the prostaglandin generation inhibitory activity of the ginsenoside F2 is determined by the reduced amount of prostaglandin generated in the LPS-treated group in comparison with the case of the control in terms of the percentage amount of the prostaglandin decreased by treatment with LPS and the sample, while the difference in the amount of the generated prostaglandin between the LPS-treated group and the control group is set to 100%.

## Cn1c(=O)c2c(ncn2C)n(C)c1=O [Comparative group, caffeine, reference compound]
3T3-L1 cells
  Inhibition rate (%) (degree of dying with Sudan III): +

## CC(=O)Oc1ccccc1C(=O)O [Control (aspirin-treated group), aspirin, reference compound]
[1]
  prostaglandin generation (Blank = 100%): 25.0%
